Patent US11731939B1, “Indole-based chalcone compounds as antibacterial agents” (KING FAISAL UNIVERSITY, priority 2023, dated 2023)
In brackets after ≈: the same amount, converted by molar mass. Read-outs that look alike come from different tables or passages of the source.

Assays:
[1] = system: Enterococcus faecium ATCC 51559 (VRE resistant); assay: Antibacterial activity, dilution susceptibility test (CLSI M07-A10); assay type: cell-based
[2] = system: Staphylococcus aureus ATCC BAA-1556 (MERSA resistant); assay: as above; assay type: cell-based; conditions: ATCCBAA1556
[3] = system: Escherichia coli MTCC 443; assay: as above; assay type: cell-based; conditions: MTCC443
[4] = system: Staphylococcus epidermidis; assay: as above; assay type: cell-based
[5] = system: Staphylococcus aureus ATCC 29213; assay: as above; assay type: cell-based; conditions: ATCC29213
[6] = system: Pseudomonas aeruginosa MTCC 741; assay: as above; assay type: cell-based; conditions: MTCC741
[7] = system: Klebsiella pneumonia MTCC 618; assay: as above; assay type: cell-based; conditions: Klebsiella pneumoniae, MTCC618
DNA gyrase from E. coli = biological target: T1, DNA gyrase from E. coli (Escherichia coli, UniProt P0AES4+P0AES6); assay: Inhibitory activity on E. coli DNA gyrase (Inspiralis assay); assay type: biochemical
T1 construct: purchased Inspiralis
Procedure: Inhibitory potencies were investigated utilizing the Inspiralis assay on streptavidin-coated 96-well microtiter plates. First, the plates were rehydrated with buffer (20 mM Tris-HCl with pH 7.6, 0.01% w/v BSA, 0.05% v/v Tween 20, 137 mM NaCl) and the biotinylated oligonucleotide was then immobilized. After washing off the unbound oligonucleotide, the enzyme test was performed. […] Reaction solutions were incubated at 37° C. for 30 min. After that, the TF buffer (50 mM NaOAc with pH 5.0, 50 mM NaCl and 50 mM MgCl2) was added to terminate the enzymatic reaction. After additional incubation for 30 min at rt, during which biotinoligonucleotide-plasmid triplex was formed, the unbound plasmid was washed off using TF buffer and SybrGOLD in T10 buffer (10 mM Tris HCl with pH 8.0 and 1 mM EDTA) was added. The fluorescence was measured with a microplate reader (BioTek Synergy H4, excitation: 485 nm, emission: 535 nm). Initial screening was done at 100 or 10 μM concentration of inhibitors. […] GraphPad Prism software was used to calculate the IC50 values. The result is given as the average value of three independent measurements.

[8] = system: Enterococcus faecium ATCC 35667; assay: Antibacterial activity, dilution susceptibility test (CLSI M07-A10); assay type: cell-based; conditions: ATCC35667
[9] = system: Bacillus subtilis MTCC 441; assay: as above; assay type: cell-based; conditions: MTCC441
[10] = system: Mycobacterium tuberculosis H37Rv strain; assay: Anti-tubercular properties, alamar blue microplate MIC; assay type: cell-based; conditions: 168 h, M. tuberculosis H37Rv, seven days at 37° C., read-out: anti-mycobacterial activity (MIC)

T1 sequence (P0AES4 whole entry, one chain of several): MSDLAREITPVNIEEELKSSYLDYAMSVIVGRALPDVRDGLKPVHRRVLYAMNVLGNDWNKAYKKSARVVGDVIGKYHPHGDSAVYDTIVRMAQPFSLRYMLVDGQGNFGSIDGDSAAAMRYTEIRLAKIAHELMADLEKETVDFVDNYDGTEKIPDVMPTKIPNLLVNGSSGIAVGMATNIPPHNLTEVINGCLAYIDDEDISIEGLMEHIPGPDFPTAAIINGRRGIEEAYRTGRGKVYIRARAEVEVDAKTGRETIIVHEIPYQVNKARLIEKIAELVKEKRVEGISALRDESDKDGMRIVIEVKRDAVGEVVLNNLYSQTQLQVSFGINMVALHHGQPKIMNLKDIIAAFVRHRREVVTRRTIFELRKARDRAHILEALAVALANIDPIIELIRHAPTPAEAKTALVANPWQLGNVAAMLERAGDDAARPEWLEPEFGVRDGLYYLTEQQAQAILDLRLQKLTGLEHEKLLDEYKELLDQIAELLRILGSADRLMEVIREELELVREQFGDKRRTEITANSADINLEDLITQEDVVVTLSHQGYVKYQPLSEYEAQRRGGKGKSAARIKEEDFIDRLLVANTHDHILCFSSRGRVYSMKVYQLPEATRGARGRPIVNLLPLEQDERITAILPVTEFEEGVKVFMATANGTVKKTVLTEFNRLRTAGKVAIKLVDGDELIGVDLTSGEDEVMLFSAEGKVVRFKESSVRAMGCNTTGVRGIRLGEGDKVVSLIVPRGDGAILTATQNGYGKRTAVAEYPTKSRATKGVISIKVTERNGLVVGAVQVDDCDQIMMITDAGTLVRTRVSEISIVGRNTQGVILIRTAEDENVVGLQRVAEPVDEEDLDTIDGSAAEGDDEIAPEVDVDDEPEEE

Structure (SMILES): CNc1cc(F)cc2c(/C=C/C(=O)c3ccc(C(=O)O)cc3)c[nH]c12 [Compound 1, (E)-4-(3-(5-fluoro-7-(methylamino)-1H-indol-3-yl)acryloyl)benzoic acid]
- MIC ([1]; Enterococcus faecium ATCC 51559 (VRE resistant), read-out: MIC): 0.5 µg/mL (≈ 1.48 µM)
- MIC [2]: 0.75 µg/mL (≈ 2.22 µM)
- MIC ([3]; Escherichia coli MTCC 443, read-out: MIC): 0.75 µg/mL (≈ 2.22 µM)
- MIC ([4]; read-out: MIC): 1 µg/mL (≈ 2.96 µM)
- MIC [5]: 0.75 µg/mL (≈ 2.22 µM)
- MIC ([6]; Pseudomonas aeruginosa MTCC 741, read-out: MIC): 0.5 µg/mL (≈ 1.48 µM)
- MIC ([7]; Klebsiella pneumonia MTCC 618, read-out: MIC): 0.75 µg/mL (≈ 2.22 µM)
- IC50 (DNA gyrase from E. coli): 150 nM
- MIC ([8]; Enterococcus faecium ATCC 35667, read-out: MIC): 1 µg/mL (≈ 2.96 µM)
- MIC ([9]; Bacillus subtilis MTCC 441, read-out: MIC): 0.25 µg/mL (≈ 0.739 µM)
- MIC [10]: 2 µg/mL (≈ 5.91 µM)

Structure (SMILES): CN[C@H](CC(C)C)C(=O)N[C@H]1C(=O)N[C@@H](CC(N)=O)C(=O)N[C@H]2C(=O)N[C@H]3C(=O)N[C@H](C(=O)N[C@H](C(=O)O)c4cc(O)cc(O)c4-c4cc3ccc4O)[C@H](O)c3ccc(c(Cl)c3)Oc3cc2cc(c3O[C@@H]2O[C@H](CO)[C@@H](O)[C@H](O)[C@H]2O[C@H]2C[C@](C)(N)[C@H](O)[C@H](C)O2)Oc2ccc(cc2Cl)[C@H]1O [Vancomycin, reference compound]
- MIC ([1]; Enterococcus faecium): > 128 µg/mL
- MIC ([3]; Escherichia coli): > 128 µg/mL
- MIC [4]: 1 µg/mL (≈ 0.69 µM)
- MIC ([6]; Pseudomonas aeruginosa): > 128 µg/mL
- MIC [7]: > 128 µg/mL
- MIC ([8]; Enterococcus faecium): 0.5 µg/mL (≈ 0.345 µM)
- MIC ([9]; Bacillus subtilis): 0.5 µg/mL (≈ 0.345 µM)
